# Tests used:
# Type in all cases: binding
# HCoV-OC43 Spike = molecular target: T1, HCoV-OC43 Spike (Human coronavirus OC43, UniProt P36334); test: SPR (Reichert4, CM5 chip, Spike immobilised)
# T1 construct: gene S
# From the text: SPR (Reichert4, CM5 chip, Spike immobilised) on HCoV-OC43 Spike | we observed its interaction with the Spike proteins of various coronaviruses in vitro (Figure 5C)
# hTMPRSS2 = molecular target: T2, hTMPRSS2 (Homo sapiens, UniProt O15393); test: SPR (CM5 chip, hTMPRSS2 immobilised)
# T2 construct: gene TMPRSS2; purified protein; immobilised on CM5 chip
# From the text: SPR (CM5 chip, hTMPRSS2 immobilised) on hTMPRSS2 | Through SPR assay, we validated that tetrandrine could also bind to TMPRSS2
# HCoV-229E Spike = molecular target: T3, HCoV-229E Spike (Human coronavirus 229E, UniProt P15423); test: SPR (Reichert4, CM5 chip, Spike immobilised)
# T3 construct: gene S
# From the text: SPR (Reichert4, CM5 chip, Spike immobilised) on HCoV-229E Spike | we observed its interaction with the Spike proteins of various coronaviruses in vitro (Figure 5C)
# T2 sequence (O15393 whole entry): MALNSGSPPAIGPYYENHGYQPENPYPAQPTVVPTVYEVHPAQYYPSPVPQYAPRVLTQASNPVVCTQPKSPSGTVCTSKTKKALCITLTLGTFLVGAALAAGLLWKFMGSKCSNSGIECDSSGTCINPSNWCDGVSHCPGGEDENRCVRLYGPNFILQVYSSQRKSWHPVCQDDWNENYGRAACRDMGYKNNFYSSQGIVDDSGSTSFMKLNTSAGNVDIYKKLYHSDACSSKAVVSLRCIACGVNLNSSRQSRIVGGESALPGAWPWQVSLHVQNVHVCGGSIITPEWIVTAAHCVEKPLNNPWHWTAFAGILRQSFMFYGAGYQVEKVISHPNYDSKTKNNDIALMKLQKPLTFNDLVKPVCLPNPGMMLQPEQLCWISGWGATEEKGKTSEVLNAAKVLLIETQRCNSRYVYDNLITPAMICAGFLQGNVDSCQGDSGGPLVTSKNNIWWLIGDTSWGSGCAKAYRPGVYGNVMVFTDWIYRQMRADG
# T3 sequence (P15423 16-1173): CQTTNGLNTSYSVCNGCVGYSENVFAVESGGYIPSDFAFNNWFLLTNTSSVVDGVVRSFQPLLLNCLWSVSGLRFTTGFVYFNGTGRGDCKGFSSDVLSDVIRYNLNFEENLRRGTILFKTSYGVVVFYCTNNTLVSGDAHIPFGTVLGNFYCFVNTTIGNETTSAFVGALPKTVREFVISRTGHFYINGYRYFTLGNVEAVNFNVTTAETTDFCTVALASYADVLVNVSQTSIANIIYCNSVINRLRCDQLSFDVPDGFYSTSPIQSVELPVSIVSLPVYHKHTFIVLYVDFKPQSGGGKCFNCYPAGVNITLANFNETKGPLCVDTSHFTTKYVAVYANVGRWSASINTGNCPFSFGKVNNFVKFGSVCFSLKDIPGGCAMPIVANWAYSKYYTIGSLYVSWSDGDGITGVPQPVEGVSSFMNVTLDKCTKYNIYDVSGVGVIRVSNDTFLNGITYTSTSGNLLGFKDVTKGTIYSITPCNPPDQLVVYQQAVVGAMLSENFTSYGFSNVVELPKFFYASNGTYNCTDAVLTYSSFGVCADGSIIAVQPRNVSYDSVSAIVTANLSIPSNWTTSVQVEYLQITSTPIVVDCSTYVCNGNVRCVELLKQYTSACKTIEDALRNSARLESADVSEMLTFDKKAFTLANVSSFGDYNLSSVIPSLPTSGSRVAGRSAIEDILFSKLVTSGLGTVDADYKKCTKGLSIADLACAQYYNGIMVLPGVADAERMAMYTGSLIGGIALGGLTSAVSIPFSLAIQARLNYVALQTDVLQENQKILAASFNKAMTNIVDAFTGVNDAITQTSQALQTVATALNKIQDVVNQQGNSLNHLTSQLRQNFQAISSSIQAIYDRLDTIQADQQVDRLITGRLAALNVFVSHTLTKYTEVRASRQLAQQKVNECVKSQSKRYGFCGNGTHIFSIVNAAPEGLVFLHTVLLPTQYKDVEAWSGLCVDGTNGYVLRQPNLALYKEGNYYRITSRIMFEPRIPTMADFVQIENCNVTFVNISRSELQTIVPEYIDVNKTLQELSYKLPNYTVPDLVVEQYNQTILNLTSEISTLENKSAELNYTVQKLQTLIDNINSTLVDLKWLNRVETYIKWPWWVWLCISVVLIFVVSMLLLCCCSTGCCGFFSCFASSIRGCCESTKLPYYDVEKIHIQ
# T1 sequence (P36334 14-1353): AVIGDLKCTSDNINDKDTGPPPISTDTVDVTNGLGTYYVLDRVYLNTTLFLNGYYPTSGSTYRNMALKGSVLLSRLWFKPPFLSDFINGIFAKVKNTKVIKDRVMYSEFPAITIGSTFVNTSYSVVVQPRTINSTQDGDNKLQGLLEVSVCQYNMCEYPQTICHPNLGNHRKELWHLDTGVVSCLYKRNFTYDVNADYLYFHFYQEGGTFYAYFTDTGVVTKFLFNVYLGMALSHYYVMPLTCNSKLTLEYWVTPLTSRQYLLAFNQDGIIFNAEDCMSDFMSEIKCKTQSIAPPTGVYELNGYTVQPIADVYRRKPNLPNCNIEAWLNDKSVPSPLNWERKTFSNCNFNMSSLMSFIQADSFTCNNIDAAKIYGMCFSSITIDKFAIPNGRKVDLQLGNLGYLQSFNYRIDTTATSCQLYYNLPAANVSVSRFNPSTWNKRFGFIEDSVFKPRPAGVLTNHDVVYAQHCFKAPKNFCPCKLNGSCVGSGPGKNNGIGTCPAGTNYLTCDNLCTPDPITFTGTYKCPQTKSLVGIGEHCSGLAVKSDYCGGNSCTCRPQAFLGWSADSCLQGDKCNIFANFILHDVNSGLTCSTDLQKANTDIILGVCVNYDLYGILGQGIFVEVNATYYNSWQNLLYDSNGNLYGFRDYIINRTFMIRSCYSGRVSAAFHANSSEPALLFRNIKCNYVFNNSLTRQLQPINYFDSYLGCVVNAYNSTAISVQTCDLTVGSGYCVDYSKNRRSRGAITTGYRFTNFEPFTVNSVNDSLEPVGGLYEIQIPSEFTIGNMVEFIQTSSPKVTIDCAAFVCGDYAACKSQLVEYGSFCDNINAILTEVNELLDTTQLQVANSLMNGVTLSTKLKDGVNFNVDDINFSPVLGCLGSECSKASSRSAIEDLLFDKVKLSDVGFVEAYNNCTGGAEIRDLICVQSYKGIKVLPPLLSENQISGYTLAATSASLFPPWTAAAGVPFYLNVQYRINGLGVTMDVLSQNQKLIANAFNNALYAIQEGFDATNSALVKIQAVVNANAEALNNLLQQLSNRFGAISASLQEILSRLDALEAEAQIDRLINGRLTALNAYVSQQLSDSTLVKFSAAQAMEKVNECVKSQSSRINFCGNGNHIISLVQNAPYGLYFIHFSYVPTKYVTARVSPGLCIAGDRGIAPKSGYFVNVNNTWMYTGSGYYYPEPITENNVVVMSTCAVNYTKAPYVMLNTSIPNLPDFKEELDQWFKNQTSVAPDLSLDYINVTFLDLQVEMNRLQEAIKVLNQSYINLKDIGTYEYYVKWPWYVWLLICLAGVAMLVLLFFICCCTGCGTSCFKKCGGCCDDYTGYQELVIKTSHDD
compound,measurement,setting,value
COc1ccc2cc1Oc1ccc(cc1)C[C@H]1c3cc(c(OC)cc3CCN1C)Oc1c(OC)c(OC)cc3c1[C@H](C2)N(C)CC3 [tetrandrine],Kd,HCoV-OC43 Spike,~21.3 µM
same,Kd,hTMPRSS2,4.59 µM
same,Kd,HCoV-229E Spike,~0.53 µM
